Where two headings read alike, the source gives them in different places.
Key:
[1] = biological target: T1, 4R-tau aggregates in PSP tissue (Homo sapiens, UniProt P10636); assay: Competition binding vs [^3H]OXD-2115 in PSP tissue homogenates; details: vs [^3H]OXD-2115, PSP tissue homogenates, n = 1
T1 construct: tissue Neurodegenerative Disease Brain Bank at UCSF
Experimental: (§1) Fresh frozen, autopsy-confirmed human PD anterior cingulate cortex brain tissue blocks (1 cm^3) were obtained from Dr. Thomas Beach at Banner/Sun Health AZ with funding from the Michael J. Fox Foundation and contained frequent α-synuclein aggregates and no other detectable aggregated amyloid species. The frozen tissue blocks were prepared for the binding assays as previously described[47],[48], except that equal quantities of the homogenates of three AD brains (AD1-AD3, Table S1) were pooled, as were homogenates from three PSP brains (PSP1-PSP3), three CBD brains (CBD1-CBD3), three Pick’s brains (PiD1-PiD3), and 4 PD brains (PD1-PD4) in order to help minimize the inter-subject variability within the different neuropathological groups. Individual subcortical brain tissues from a PSP subject (PSP4) and a CBD subject (CBD4), as well as with the middle frontal cortex of a control subject, were prepared for the binding assays as previously described[47],[48].
(§2) The equilibrium inhibition constant (Ki) values of the unlabeled compounds were determined versus tritium-labeled radioligands using published methods.

[2] = biological target: T2, 3R/4R-tau aggregates in AD tissue (Homo sapiens, UniProt P10636); assay: Competition binding vs [^3H]OXD-2115 in AD tissue homogenates; details: vs [^3H]OXD-2115, AD tissue homogenates, n = 1
Experimental: as §1, §2
Target sequence in this assay (P10636 623-695 limits assumed): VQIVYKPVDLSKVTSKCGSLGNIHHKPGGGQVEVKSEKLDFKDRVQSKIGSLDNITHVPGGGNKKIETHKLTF

[3] = biological target: T3, 3R-tau aggregates in PiD tissue (Homo sapiens, UniProt P10636); assay: Competition binding vs [^3H]OXD-2314 in PiD tissue
T3 construct: tissue Neurodegenerative Disease Brain Bank at UCSF; host or cells: human PiD brain, middle frontal gyrus, pooled homogenate of three brains
Experimental: as §1, §2

[4] = biological target: T4, 4R-tau aggregates in CBD tissue (Homo sapiens, UniProt P10636); assay: Competition binding vs [^3H]OXD-2314 in CBD tissue
T4 construct: tissue Neurodegenerative Disease Brain Bank at UCSF; host or cells: human CBD brain, middle frontal gyrus (pool of three) or putamen (one subject)
Experimental: as §1, §2

[5] = biological target: T1, 4R-tau aggregates in PSP tissue; assay: Competition binding vs [^3H]OXD-2314 in PSP tissue
Experimental: as §1, §2

[6] = biological target: T2, 3R/4R-tau aggregates in AD tissue; assay: Competition binding vs [^3H]OXD-2314 in AD tissue
Experimental: as §1, §2
Target sequence in this assay (P10636 623-758 limits assumed): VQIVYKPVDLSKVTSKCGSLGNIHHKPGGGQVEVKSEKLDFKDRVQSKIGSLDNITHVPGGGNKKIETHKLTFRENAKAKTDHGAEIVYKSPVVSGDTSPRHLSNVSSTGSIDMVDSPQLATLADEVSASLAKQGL

[7] = Mouse pharmacology (DMPK): plasma and brain concentrations, brain-to-plasma ratios after i.v. administration; format: in vivo, mice; details: mouse, brain, iv, mice, i.v., AUC brain:plasma
Experimental: Ex vivo evaluation of the BBB permeability of OXD-2314 was performed by measuring the brain-to-plasma ratios in mice. Compound concentrations in plasma (0.03 h, 0.17 h, 0.5 h, 1 h, and 2 h; n = 3 per timepoint) were compared with concentrations in brain (0.03 h, 0.17 h, 1 h, and 2 h; n = 3 per timepoint) for both OXD-2115 and OXD-2314. The total brain-to-plasma concentration ratios were 1.7 for OXD-2314 and 0.1 for OXD-2115. The free concentration ratio for brain-to-plasma was 0.6 for OXD-2314 and 0.002 for OXD-2115 (Figs. S3–S8 and Tables S2, S3).

[8] = Baseline PET-CT imaging of [18F]OXD-2188 and [18F]OXD-2189 in rats; format: in vivo, rat; details: normal rats, n = 2
Experimental: In vitro characterization, radiosynthesis and rat PET imaging of [ 18F ]O X D -2188 and […]
In vitro characterization. Ki values for OXD-21188 and OXD-2189 vs. [3H]OXD- 2115 in PSP tissue was 29.8 nM and 13.7nM respectively.
Radiochemistry. [18F]OXD- 2188 and [18F]OXD- 2189 were radiolabeled using the same […]
radiochemical purity above 95%, molar activity of 60.1 and 58.4 GBq/μmol, respectively, and radiochemical yield of 9% (not decay- co rrected).
PET imaging. Three adul t rats (two females and o ne male) w ere used in b aseline PET imaging of [18F]OXD- 2188 and [18F]OXD- 2189 (16- 23 MBq injected, with the m ale rat being scanned twice on two consecutive d ays). […]
for both [18F]OXD- 2188 (n=2) and [18F]OXD- 2189 (n=2) with rapid clearance of radioactivity from the brain (Figure S1).
Figure S1. Structures of OXD-2188 and OXD-2189, time-activity curves and representative PET summation images […]

T4 sequence (P10636 1-441 isoform P10636-8): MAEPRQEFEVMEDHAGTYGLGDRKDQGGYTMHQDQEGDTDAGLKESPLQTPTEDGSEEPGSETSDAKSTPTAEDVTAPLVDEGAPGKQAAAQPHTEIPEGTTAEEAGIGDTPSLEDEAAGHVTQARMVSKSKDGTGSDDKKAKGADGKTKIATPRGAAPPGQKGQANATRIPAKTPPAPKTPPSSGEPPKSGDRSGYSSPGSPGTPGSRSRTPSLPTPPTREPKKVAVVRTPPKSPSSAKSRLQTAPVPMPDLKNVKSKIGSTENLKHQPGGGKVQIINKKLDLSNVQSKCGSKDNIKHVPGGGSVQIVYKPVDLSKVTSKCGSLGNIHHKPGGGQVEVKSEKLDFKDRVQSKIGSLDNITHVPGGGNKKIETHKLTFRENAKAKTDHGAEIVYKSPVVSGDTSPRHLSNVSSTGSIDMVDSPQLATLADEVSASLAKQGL
T1 sequence (P10636 1-441 isoform P10636-8): as above
T3 sequence (P10636 1-410 isoform P10636-5): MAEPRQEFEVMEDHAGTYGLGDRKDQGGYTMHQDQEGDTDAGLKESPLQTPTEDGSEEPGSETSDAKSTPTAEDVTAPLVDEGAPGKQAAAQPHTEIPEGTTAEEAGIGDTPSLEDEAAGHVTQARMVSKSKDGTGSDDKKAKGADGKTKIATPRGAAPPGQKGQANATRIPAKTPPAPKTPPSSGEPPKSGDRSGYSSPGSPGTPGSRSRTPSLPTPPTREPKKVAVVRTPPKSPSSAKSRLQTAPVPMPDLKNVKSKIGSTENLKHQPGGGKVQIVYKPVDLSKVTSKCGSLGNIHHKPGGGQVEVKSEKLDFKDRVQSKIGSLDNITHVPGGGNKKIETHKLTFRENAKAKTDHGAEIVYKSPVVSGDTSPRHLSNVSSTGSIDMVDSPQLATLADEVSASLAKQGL

`Oc1ccc2[nH]c(-c3ccc(N4CCCC(F)C4)nc3F)cc2c1` (stereo not drawn) [OXD-2312] showed a Ki [1] of 5.1 nM and a Ki [2] of 12 nM.

Compound `OCC1CCN(c2ccc(-c3cc4cc(O)ccc4[nH]3)c(F)n2)CC1` [OXD-2115] has a Ki [3] of 23 nM, a Ki [4] of 30 nM and a Ki [1] of 27 nM. It also gave a Ki [5] of 27 nM, a Ki [6] of 14 nM and a Kp,uu (unbound brain-to-plasma ratio) ([7]; FREE, read-out: free concentration ratio brain-to-plasma) of 0.002. It also gave a Kp ([7]; TOTAL, read-out: total brain-to-plasma concentration ratio) of 0.1 and a Ki [2] of 20 nM.

For `CO[C@H]1CCCN(c2ncc(-c3cc4cc(O)ccc4[nH]3)c(F)n2)C1` [OXD-2331], the Ki [1] was 6.3 nM and the Ki [2] was 7.4 nM.

For `C#CCN(C)C(C)Cc1ccccc1` (stereo not drawn) [Deprenyl], the Ki ([4]; vs [^3H]OXD-2314, CBD tissue) was 5000 nM, the Ki ([5]; vs [^3H]OXD-2314, PSP tissue) was 3000 nM and the Ki ([6]; vs [^3H]OXD-2314, AD tissue) was 2900 nM.

`Oc1ccc2[nH]c(-c3ccc(N4CCC(F)CC4)nc3F)cc2c1` [OXD-2317] showed a Ki [1] of 5.8 nM and a Ki [2] of 5.4 nM.

With `Oc1ccc2[nH]c(-c3ccc(N4CCC[C@H](O)C4)nc3[18F])cc2c1` [[18F]OXD-2189] the initial brain uptake [8] was ~ 1.0 SUV.

`Oc1ccc2[nH]c(-c3ccc(N4CCC[C@@H](O)C4)nc3F)cc2c1` [OXD-2188] showed a Ki [1] of 29.8 nM.

Work on `Fc1ccc(-c2ccc3c(c2)[nH]c2ccncc23)cn1` [Tauvid] yielded a Ki [3] of 4400 nM, a Ki [4] greater than 10000 nM and a Ki [5] greater than 10000 nM. For the same compound, the Ki [6] was greater than 10000 nM.

With `Oc1ccc2[nH]c(-c3ccc(N4CCC[C@H](O)C4)nc3F)cc2c1` [OXD-2189] the Ki [1] was 13.7 nM.

`Oc1ccc2[nH]c(-c3ccc(N4CCC(O)CC4)nc3F)cc2c1` [OXD-2310] gave a Ki [1] of 6.6 nM and a Ki [2] of 21 nM.

Compound `Oc1ccc2[nH]c(-c3ccc(F)nc3N3CCCC(F)C3)cc2c1` (stereo not drawn) [OXD-2313] has a Ki [1] of 4.8 nM and a Ki [2] of 11 nM.

In the case of `NCCNC(=O)c1ncsc1-c1cccc(F)c1` [Ro41-1049], the Ki ([4]; vs [^3H]OXD-2314, CBD tissue) is reported as greater than 10000 nM, the Ki ([5]; vs [^3H]OXD-2314, PSP tissue) is reported as greater than 10000 nM and the Ki ([6]; vs [^3H]OXD-2314, AD tissue) is reported as greater than 10000 nM.

Work on `Nc1c(F)ccc2cnc(-n3ccc4ccncc43)cc12` [MK-6240] yielded a Ki [3] of 1000 nM, a Ki [4] of 1700 nM and a Ki [5] of 5600 nM. The Ki [6] was 1900 nM.

With `Oc1ccc2[nH]c(-c3ccc(N4CCC[C@@H](O)C4)nc3[18F])cc2c1` [[18F]OXD-2188] the initial brain uptake [8] was ~ 1.0 SUV.
